Measured values: PubChem BioAssay AID463199 (Broad Institute, 2010)
Calls of active or inactive are those of the source.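 The calls were made as follows: active = AC50, the dose giving half-maximal effect, exceeds a fixed cutoff for a compound that rescues yeast growth under heat; inactive = the rest, inconclusive results apart.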

System: S. cerevisiae Burl-1 ts mutant growth, BacTiter-Glo, 38.5C 24 h
Assay: restored growth of temperature-sensitive Burl-1 yeast – whole organism, S. cerevisiae, Burl-1 ts mutant, luminescence, counter-screen for SUMOylation pathway inhibitor project, dose response (AID 463199)

SMILES | AC50
COCC(C)n1c(C)cc(C(=O)CSc2ccc(NC(C)=O)cc2)c1C (stereo not drawn) | > 42 µM (inactive)
N=c1c2c(n(Cc3ccc(Cl)c(Cl)c3)c3c1CCC3)CCCC2 | > 42 µM (inactive)
N[C@@H](Cc1ccc(O)c(I)c1)C(=O)O | > 42 µM (inactive)
O=C(CCC(=O)Nc1ccc(F)cc1)N/N=C/c1cccs1 | > 42 µM (inactive)
COc1ccc2c(Cl)c(C(=O)NN3CCN(C)CC3)sc2c1 | > 42 µM (inactive)
COc1cc(CNCCN2CCOCC2)ccc1OCc1ccccc1Cl | > 42 µM (inactive)
O=C(CN1CCN(Cc2ccc(Cl)cc2)CC1)N/N=C/c1ccncc1 | > 42 µM (inactive)
Cc1cnc(C(=O)OC(C(=O)c2c[nH]c3ccccc23)c2ccccc2)cn1 (stereo not drawn) | > 42 µM (inactive)
CC(=O)Nc1cccc(OCC(=O)NS(=O)(=O)c2ccc(C)cc2)c1 | > 42 µM (inactive)
COc1ccc2c(CC(=O)Nc3ccc(OC)c(NS(=O)(=O)c4ccc(F)cc4)c3)coc2c1 | > 42 µM (inactive)
O=C(c1ccc(Br)cc1)C(CN1CCOCC1)c1ccccc1 (stereo not drawn) | 1.86 µM
CN(C)CCN(Cc1ccc(Cl)cc1)c1ccccn1 | 36.3 µM
COc1cc(C)c(Cl)c(C)c1S(=O)(=O)NCc1ccc2c(c1)OCO2 | > 42 µM (inactive)
O=c1cnc2cc([N+](=O)[O-])ccc2[nH]1 | > 42 µM (inactive)
Cc1cccc(C)c1NC(=O)C1(N(Cc2ccco2)C(=O)CC2NC(=O)NC2=O)CCCCC1 (stereo not drawn) | > 42 µM (inactive)
COC(=O)c1ccc(N2C(=O)CC(NCc3ccccc3)C2=O)cc1 (stereo not drawn) | > 42 µM (inactive)
Cc1ccccc1Nc1c([N+](=O)[O-])ccc2c1=NC1(CCCCC1)N=2 | > 42 µM (inactive)
C=C1C(O)[C@@H]2O[C@]3(CC[C@H](/C=C/C(C)[C@@H]4CC(C)=CC5(O[C@H](C[C@@](C)(O)C(=O)O)CCC5O)O4)O3)CC[C@H]2O[C@@H]1C(O)CC(C)[C@H]1OC2(CCCCO2)CCC1C (stereo partly drawn) | 4.06 µM
CSc1nnc2c3cc(C)ccc3n(Cc3ccccc3)c2n1 | > 42 µM (inactive)
O=C1c2nccnc2C(=O)N1c1ccc(C(F)(F)F)cc1 | > 42 µM (inactive)
O=C(CSc1nc(-c2ccccc2)nc2ccc(F)cc12)Nc1cccc(C(=O)O)c1 | > 42 µM (inactive)
CC1CC(C)(C)NC(=S)N1CC(=O)NCc1ccc(F)cc1 (stereo not drawn) | > 42 µM (inactive)
COc1ccc(-n2c(C)cc(C(=O)CN3C(=O)NC4(CCCc5sccc54)C3=O)c2C)cc1 (stereo not drawn) | > 42 µM (inactive)
CCn1cc(CCCC(=O)NCc2ccccc2OC)c2ccccc21 | > 42 µM (inactive)

SMILES | AC50
Cc1cc(C)cc(C(=O)N2CCC3(CC2)NCCc2[nH]cnc23)c1 | > 42 µM (inactive)
CC(C)(C)Cc1nc(-c2ccccn2)no1 | > 42 µM (inactive)
CCSc1nc2ccccc2c(=O)n1C1CCOC(C)(C)C1 (stereo not drawn) | > 42 µM (inactive)
CCOC(=O)C1CC(c2ccccc2)=NNC1=O (stereo not drawn) | > 42 µM (inactive)
CN(C(=O)COC(=O)c1cc2ccccc2cc1O)c1c(N)n(Cc2ccccc2)c(=O)[nH]c1=O | > 42 µM (inactive)
CCOc1ccc(Cl)cc1S(=O)(=O)N1CCC(C(=O)NCc2cccnc2)CC1 | > 42 µM (inactive)
C=C(C)Cc1c(C)c(C#N)c2[nH]c3ccccc3n2c1=O | > 42 µM (inactive)
CCN1CCCC(NC(=O)c2scc3c2CCCC3)C1 (stereo not drawn) | > 42 µM (inactive)
CC(C)CNc1cc(=O)n(C)c(=O)n1C | > 42 µM (inactive)
Cc1cccc(NC(=O)CCc2ccccc2)c1 | > 42 µM (inactive)
COc1ccccc1NC(=O)CSc1nc(O)c(Cc2ccccc2)c(=O)[nH]1 | > 42 µM (inactive)
Cc1ccc(S(=O)(=O)Nc2n[nH]nc2C(=O)NC2CCCCC2)cc1 | > 42 µM (inactive)
CCOc1ccc(Br)cc1CNCCN1CCOCC1 | > 42 µM (inactive)
O=C1c2ccccc2C(=O)N1CCCCSc1nc2ccccc2c(=O)n1CCCN1CCOCC1 | > 42 µM (inactive)
CCn1ncc(Br)c1C(=O)Nc1ccc(OC(F)(F)F)cc1 | > 42 µM (inactive)
CN(C)/C=C/C(=O)c1ccncc1 | > 42 µM (inactive)
Cc1cc(C)cc(C(=O)NC(CC(N)=O)c2ccc(NCCN3CCOCC3)c([N+](=O)[O-])c2)c1 (stereo not drawn) | > 42 µM (inactive)
CCOc1ccc(NC(=O)CSc2nnc(Cc3csc(C)n3)o2)cc1 | > 42 µM (inactive)
COc1ccc(CN2C(=O)c3c(c(C)n(C)c3C)C2C(=O)NC2CCC(C)CC2)cc1 (stereo not drawn) | > 42 µM (inactive)
CCNC(=O)NC(C(=O)OC)C12CC3CC(CC(C3)C1)C2 (stereo not drawn) | > 42 µM (inactive)
Cc1[nH]n(-c2ccccc2)c(=O)c1C(C[N+](=O)[O-])c1ccc(Br)cc1 (stereo not drawn) | 42.1 µM
COC(=O)c1sc2ccccc2c1NC(=O)c1ccc(S(=O)(=O)N2CCCC(C)C2)cc1 (stereo not drawn) | > 42 µM (inactive)
COc1ccccc1NC(=O)COC(=O)CC(C)(C)CC1=NS(=O)(=O)c2ccccc2N1 | > 42 µM (inactive)
O=C(NNS(=O)(=O)c1c(F)cc(F)c(Cl)c1F)C12CC3CC(CC(C3)C1)C2 | > 42 µM (inactive)
